Test results as given in US11033641B2, “Radiolabelled mGluR2/3 pet ligands” (Janssen Pharmaceutica NV, priority 2015, dated 2021).
One block for each molecule: values may come before it.

Assays:
human mGlu2 = target: T1, human mGlu2 (Homo sapiens, UniProt Q14416); assay: [3H]-compound A displacement binding, human mGlu2 HEK293 membranes; details: Glu2 HEK293, 6 nM [3H]-compound A
T1 construct: expressed in transfected cells; host or cells: HEK293
Description: (§1) For [^3H]-compound A (a NAM compound, selective for mGlu2/3 (˜20 fold selective for 2 over 3) vs other mGluRs) binding, membranes from human mGlu2 and mGlu3 HEK293 cells, and also rat cortical membranes, were used. After thawing, membranes were homogenized using an Ultra Turrax homogenizer and suspended in ice-cold binding buffer containing 50 mM Tris-HCl (pH 7.4), 10 mM MgCl2, 2 mM CaCl2. Displacement studies were done using 6 nM of radioligand, except for human mGlu3 membranes where 25 nM was used. Assay mixtures were incubated for 60 min at RT in a volume of 0.5 ml containing […] or 75 μg membrane protein of human mGlu2, human mGlu3 or rat cortex, respectively. Non-specific binding was estimated in the presence of […] compound B (a NAM with IC50˜10 nM against hmGlu2 and IC50˜200 nM against hmGlu3). Filtration was performed using Whatman GF/C filter sheets pre-soaked in 0.1% PEI and a Brandell harvester 96.
(§2) Filters from filters sheets were punched into vials. After the addition of scintillation liquid, radioactivity on the filters was counted in a Liquid Scintillation Analyzer from Perkin Elmer.
(§3) Radioligand competition binding data were calculated as percentage of total binding measured in the absence of test compound. Inhibition curves, plotting percentage of total binding versus the log concentration of the test compound, were generated using the Lexis software. Sigmoid inhibition curves were analyzed using non-linear regression analysis.

human mGlu3 = target: T2, human mGlu3 (Homo sapiens, UniProt Q14832); assay: [3H]-compound A displacement binding, human mGlu3 HEK293 membranes; details: Glu3 HEK293, 25 nM [3H]-compound A
T2 construct: expressed in transfected cells; host or cells: HEK293
T2 sequence (Q14832 23-879): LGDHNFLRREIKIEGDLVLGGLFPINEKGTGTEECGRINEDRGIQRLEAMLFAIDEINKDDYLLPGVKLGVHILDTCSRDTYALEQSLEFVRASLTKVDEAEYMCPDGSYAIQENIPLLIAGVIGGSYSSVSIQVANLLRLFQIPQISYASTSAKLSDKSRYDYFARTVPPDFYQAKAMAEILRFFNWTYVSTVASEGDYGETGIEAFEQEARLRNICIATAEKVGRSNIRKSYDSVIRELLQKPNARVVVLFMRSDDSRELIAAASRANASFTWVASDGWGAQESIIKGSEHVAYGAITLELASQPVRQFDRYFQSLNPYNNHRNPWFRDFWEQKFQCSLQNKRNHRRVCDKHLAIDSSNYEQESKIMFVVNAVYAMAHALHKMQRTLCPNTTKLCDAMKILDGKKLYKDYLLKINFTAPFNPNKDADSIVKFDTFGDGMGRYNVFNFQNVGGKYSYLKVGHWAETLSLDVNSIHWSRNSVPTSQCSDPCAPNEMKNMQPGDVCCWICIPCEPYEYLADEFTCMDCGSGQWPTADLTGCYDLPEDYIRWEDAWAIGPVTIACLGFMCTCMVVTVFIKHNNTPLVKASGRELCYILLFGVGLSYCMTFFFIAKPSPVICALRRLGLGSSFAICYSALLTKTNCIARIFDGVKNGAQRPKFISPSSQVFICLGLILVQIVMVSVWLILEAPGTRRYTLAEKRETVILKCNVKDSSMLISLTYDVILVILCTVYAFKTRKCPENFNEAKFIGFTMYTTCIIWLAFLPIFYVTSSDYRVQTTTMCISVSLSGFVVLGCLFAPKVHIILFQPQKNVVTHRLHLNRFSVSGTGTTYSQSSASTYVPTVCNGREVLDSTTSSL
Description: as §1, §2, §3

[1] = Ex-vivo biodistribution in SD rats; set-up: species or system Sprague Dawley rats
Description: (§4) Sprague-Dawley rats obtained from Harlan (the Netherlands), were housed in groups of four to six per cage until treatment. They were kept at a constant temperature of 21° C. and at a 12-h light/dark cycle, in which lights were switched on at 8:00 a.m. Animals had unrestricted access to food (Teklad Global 16% Protein Rodent Diet, Harlan, Madison, Wis., USA) and water. All animal experiments were performed in compliance with Belgium laws on animal experimentation and after approval by the local animal ethics committee.
(§5) The biodistribution of [^18F]-1 was determined at 2, 10, 30 and 60 min, after injection in Sprague Dawley (SD) rats (n=3 per time point) while for [^18F]-2 the 30 min time point was not performed. Rats were injected intravenously with 0.7-1.1 MBq via a tail vein and euthanized at the time points indicated above, under isoflurane anesthesia. All tissues were dissected, weighed and counted for radioactivity in a gamma counter.
as §5, with “Dawley” for “Dawley (SD)”, “point).” for “point) while for [^18F]-2 the 30 min time point was not performed.”

mGluR2/3 = assay: microPET scan, baseline and after compound A pretreatment; format: in vivo; details: SD rats
Description: Data were acquired in a 128×128×95 matrix with a pixel width of 0.475 mm and a slice thickness of 0.796 mm. During PET imaging, rats were kept under gas anesthesia (2.5% isoflurane in oxygen at a flow rate of 1 l/min), and their body temperature was maintained between 36.5 and 37° C. using a heating pad. PET data were analyzed using Pmod software version 3.2 (Pmod, Zurich Switzerland).
as §4
All pretreatment solutions were 1 mg/mL solutions in 20% β-cyclodextrine in saline with a pH ranging between 6 and 8, and sterile filtered over a Millex GV filter prior to use.
For the baseline scan, 36-43 MBq of [^18F]-1 was injected in 3 SD rats weighing 229-251 g in the tail vein, and scanned simultaneously during a 90 min dynamic PET scan. For the pretreatment scan using compound A (a NAM compound, selective for mGlu2/3 (˜20 fold selective for 2 over 3) vs other mGluRs), the same animals were injected with 10 mg/kg compound A s.c. 60 minutes prior to injection of 38-37 MBq [^18F]-1 in the tail vein, and scanned simultaneously during a 90 minutes dynamic PET scan.
For the baseline scan, 39-49 MBq of [^18F]-2 was injected in 3 SD rats weighing 301-310 g in a tail vein, and scanned simultaneously during a 90-min dynamic PET scan. For the pretreatment scan using compound A, the same animals were injected with 10 mg/kg compound A s.c. 60 min prior to injection of 46-50 MBq [^18F]-2 in the tail vein, and scanned simultaneously during a 90 min dynamic PET scan.

T1 sequence (Q14416 19-872): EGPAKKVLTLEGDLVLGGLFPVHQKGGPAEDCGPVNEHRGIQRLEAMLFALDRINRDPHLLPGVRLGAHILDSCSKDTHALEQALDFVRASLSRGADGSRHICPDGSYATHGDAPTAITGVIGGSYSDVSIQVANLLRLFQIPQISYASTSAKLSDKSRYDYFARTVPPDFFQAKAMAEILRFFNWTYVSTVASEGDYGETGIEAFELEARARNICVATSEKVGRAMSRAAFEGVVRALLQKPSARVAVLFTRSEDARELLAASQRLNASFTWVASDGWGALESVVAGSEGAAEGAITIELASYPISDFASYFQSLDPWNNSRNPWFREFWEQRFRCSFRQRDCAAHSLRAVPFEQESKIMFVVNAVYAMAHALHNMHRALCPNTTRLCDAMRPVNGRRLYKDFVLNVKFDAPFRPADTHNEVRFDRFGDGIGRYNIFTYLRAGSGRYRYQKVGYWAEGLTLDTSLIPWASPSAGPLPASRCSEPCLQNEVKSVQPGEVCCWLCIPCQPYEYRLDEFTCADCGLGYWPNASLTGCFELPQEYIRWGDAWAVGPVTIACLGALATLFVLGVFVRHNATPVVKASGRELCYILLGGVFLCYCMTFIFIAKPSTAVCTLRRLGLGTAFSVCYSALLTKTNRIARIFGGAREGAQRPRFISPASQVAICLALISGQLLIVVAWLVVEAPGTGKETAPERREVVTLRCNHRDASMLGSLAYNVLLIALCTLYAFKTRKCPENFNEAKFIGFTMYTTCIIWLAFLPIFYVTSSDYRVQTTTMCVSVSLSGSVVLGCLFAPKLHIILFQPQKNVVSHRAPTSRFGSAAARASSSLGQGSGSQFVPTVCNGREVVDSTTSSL

melting point: 153.23 °C
Compound: C[C@H]1CN(c2ccc(C(F)(F)F)c(CO)c2)C(=O)c2c(C#Cc3ccc(N)nc3)cnn21 [Compound P-3]

melting point: 211.51 °C
Compound: C[C@H]1CN(c2ccc(C(F)(F)F)cc2)C(=O)c2c(C#Cc3cnc(N)cc3CO)cnn21 [Compound P-1]

melting point: 187.28 °C
Compound: C[C@H]1CN(c2ccc(C(F)(F)F)cc2)C(=O)c2c(C#Cc3cnc(N)cc3CF)cnn21 [[^19F]-1]

Eff Curve (human mGlu2): 94
IC50 (human mGlu2): 2.82 nM
Eff Curve (human mGlu3): 107.5
IC50 (human mGlu3): 4.37 nM
Biodistribution, mean SUV ([1]; blood, 2 min after i.v. injection): 0.96 SUV
Biodistribution, mean SUV ([1]; blood, 10 min after i.v. injection): 0.92 SUV
Biodistribution, mean SUV ([1]; blood, 60 min after i.v. injection): 0.67 SUV
Biodistribution, mean SUV ([1]; bone, 2 min after i.v. injection): 0.53 SUV
Biodistribution, mean SUV ([1]; bone, 10 min after i.v. injection): 0.62 SUV
Biodistribution, mean SUV ([1]; bone, 60 min after i.v. injection): 2.77 SUV
Biodistribution, mean SUV ([1]; cerebellum, 2 min after i.v. injection): 1.53 SUV
Biodistribution, mean SUV ([1]; cerebellum, 10 min after i.v. injection): 1.23 SUV
Biodistribution, mean SUV ([1]; cerebellum, 60 min after i.v. injection): 0.73 SUV
Biodistribution, mean SUV ([1]; cerebrum + cerebellum, 2 min after i.v. injection): 1.44 SUV
Biodistribution, mean SUV ([1]; cerebrum + cerebellum, 10 min after i.v. injection): 1.34 SUV
Biodistribution, mean SUV ([1]; cerebrum + cerebellum, 60 min after i.v. injection): 0.89 SUV
Biodistribution, mean SUV ([1]; cortex, 2 min after i.v. injection): 2.50 SUV
Biodistribution, mean SUV ([1]; cortex, 10 min after i.v. injection): 2.51 SUV
Biodistribution, mean SUV ([1]; cortex, 60 min after i.v. injection): 1.56 SUV
Brain uptake, in words ([1]; ex-vivo biodistribution): medium brain uptake
Defluorination judged from bone uptake over time ([1]; ex-vivo biodistribution): massive defluorination
Peripheral uptake, in words ([1]; ex-vivo biodistribution): high uptake in the liver
Biodistribution, mean SUV ([1]; heart, 2 min after i.v. injection): 2.42 SUV
Biodistribution, mean SUV ([1]; heart, 10 min after i.v. injection): 1.67 SUV
Biodistribution, mean SUV ([1]; heart, 60 min after i.v. injection): 0.82 SUV
Biodistribution, mean SUV ([1]; hippocampus, 2 min after i.v. injection): 1.03 SUV
Biodistribution, mean SUV ([1]; hippocampus, 10 min after i.v. injection): 1.17 SUV
Biodistribution, mean SUV ([1]; hippocampus, 60 min after i.v. injection): 0.74 SUV
Biodistribution, mean SUV ([1]; kidneys, 2 min after i.v. injection): 4.05 SUV
Biodistribution, mean SUV ([1]; kidneys, 10 min after i.v. injection): 2.73 SUV
Biodistribution, mean SUV ([1]; kidneys, 60 min after i.v. injection): 1.81 SUV
Biodistribution, mean SUV ([1]; liver, 2 min after i.v. injection): 8.44 SUV
Biodistribution, mean SUV ([1]; liver, 10 min after i.v. injection): 6.22 SUV
Biodistribution, mean SUV ([1]; liver, 60 min after i.v. injection): 2.83 SUV
Biodistribution, mean SUV ([1]; lungs, 2 min after i.v. injection): 2.66 SUV
Biodistribution, mean SUV ([1]; lungs, 10 min after i.v. injection): 1.52 SUV
Biodistribution, mean SUV ([1]; lungs, 60 min after i.v. injection): 1.02 SUV
Biodistribution, mean SUV ([1]; muscle, 2 min after i.v. injection): 0.88 SUV
Biodistribution, mean SUV ([1]; muscle, 10 min after i.v. injection): 0.82 SUV
Biodistribution, mean SUV ([1]; muscle, 60 min after i.v. injection): 0.59 SUV
Biodistribution, mean SUV ([1]; pancreas, 2 min after i.v. injection): 3.29 SUV
Biodistribution, mean SUV ([1]; pancreas, 10 min after i.v. injection): 2.06 SUV
Biodistribution, mean SUV ([1]; pancreas, 60 min after i.v. injection): 1.27 SUV
Biodistribution, mean SUV ([1]; pons, 2 min after i.v. injection): 1.04 SUV
Biodistribution, mean SUV ([1]; pons, 10 min after i.v. injection): 0.74 SUV
Biodistribution, mean SUV ([1]; pons, 60 min after i.v. injection): 0.40 SUV
Biodistribution, mean SUV ([1]; rest of cerebrum, 2 min after i.v. injection): 1.45 SUV
Biodistribution, mean SUV ([1]; rest of cerebrum, 10 min after i.v. injection): 1.39 SUV
Biodistribution, mean SUV ([1]; rest of cerebrum, 60 min after i.v. injection): 0.97 SUV
Biodistribution, mean SUV ([1]; spleen, 2 min after i.v. injection): 2.53 SUV
Biodistribution, mean SUV ([1]; spleen, 10 min after i.v. injection): 1.36 SUV
Biodistribution, mean SUV ([1]; spleen, 60 min after i.v. injection): 0.87 SUV
Biodistribution, mean SUV ([1]; striatum, 2 min after i.v. injection): 1.51 SUV
Biodistribution, mean SUV ([1]; striatum, 10 min after i.v. injection): 1.61 SUV
Biodistribution, mean SUV ([1]; striatum, 60 min after i.v. injection): 1.30 SUV
Biodistribution, mean SUV ([1]; whole cerebrum, 2 min after i.v. injection): 1.39 SUV
Biodistribution, mean SUV ([1]; whole cerebrum, 10 min after i.v. injection): 1.34 SUV
Biodistribution, mean SUV ([1]; whole cerebrum, 60 min after i.v. injection): 0.90 SUV
Brain uptake in PET scan, in words (mGluR2/3; 90 min dynamic PET scan): high brain uptake
Compound: C[C@H]1CN(c2ccc(C(F)(F)F)c(C[18F])c2)C(=O)c2c(C#Cc3ccc(N)nc3)cnn21 [Compound 2]
Brain uptake after pretreatment with compound A (mGluR2/3; 10 mg/kg compound A s.c. 60 min before tracer): peak uptake was higher after pretreatment, but generally showed a faster washout
mGluR2/3 specificity of binding in vivo (mGluR2/3; PET, baseline vs compound A pretreatment): mGluR2/3 specific binding
